Tests used:
[1] = pKa determination by titration in water; format: physicochemical
[2] = pKa by ultraviolet spectrophotometric determination in water; format: physicochemical
human leukocyte elastase = target: T1, human leukocyte elastase (Homo sapiens, UniProt P08246); experiment: Inhibition of human leukocyte elastase, in vitro (Ki* = koff/kon); format: biochemical; conditions: Ki* = koff/kon (rate of reactivation divided by rate of inactivation of the enzyme); calculated from measured koff and kon
T1 sequence (P08246 30-267): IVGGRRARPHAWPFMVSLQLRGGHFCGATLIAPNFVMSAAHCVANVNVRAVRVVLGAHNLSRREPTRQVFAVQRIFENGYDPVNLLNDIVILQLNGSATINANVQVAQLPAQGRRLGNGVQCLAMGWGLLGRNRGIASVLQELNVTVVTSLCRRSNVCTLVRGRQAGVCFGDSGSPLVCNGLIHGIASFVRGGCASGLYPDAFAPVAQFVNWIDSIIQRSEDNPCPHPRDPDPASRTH
Protocol: Ki*, which is defined as the rate of reactivation of the enzyme divided by the rate of inactivation of the enzyme (koff/on), was therefore determined instead. The values of koff and kon were measured and Ki* was then calculated.
The value of kon was determined by measuring the enzyme activity of an aliquot of the enzyme as a function of the time after addition of the test compound (inhibitor). […] The value of kon was then obtained by the equation kon = kobs[I] wherein [I] is the concentration of the inhibitor. The value of koff was similarly determined, and Ki* was then obtained by the equation Ki* = koff/kon.

Row | SMILES | pKa [1] | pKa [2] | Ki (human leukocyte elastase) [pM]
1 | COC(=O)c1nn[nH]c1C(=O)OC [1,2,3-triazole-4,5-dicarboxylic acid dimethyl ester] | 4.4 |  | 
2 | Sc1nnnn1-c1ccccc1 [1-phenyltetrazole-5-thiol] |  | 2.9 | 
3 | COc1cc(C(C)C)c2c(c1)S(=O)(=O)N(COC(=O)c1c(Cl)ccc(OCCN3CCOCC3)c1Cl)C2=O [Example 2, 2-{2,6-dichloro-3-[2-(4-morpholinylethoxy)]benzoyloxymethyl}-4-isopropyl-6-methoxysaccharin] |  |  | 14
4 | NC(=O)c1nn[nH]c1C(N)=O [1,2,3-triazole-4,5-dicarboxamide] |  | 5.3 | 
5 | N#Cc1nn[nH]c1C#N [1,2,3-triazole-4,5-dinitrile] | 1.6 |  | 
6 | COc1cc(C(C)C)c2c(c1)S(=O)(=O)N(Cn1nnc(S(=O)(=O)C(C)(C)C)c1S(=O)(=O)C(C)(C)C)C2=O [Example 1, 2-[4,5-di(t-butylsulfonyl)-1,2,3-triazol-1-yl]methyl-4-isopropyl-6-methoxysaccharin] |  |  | 24
